# Patent publication US20240207241A1, “Method for Promoting Functional Cure of AIDS by Reducing HIV Reservoir with Lenalidomide” (priority 2022, published 2024)
# Experiments:
# J-lat10.6 cells = test: GFP activation of J-lat10.6 cells by supernatant of PBMCs treated with lenalidomide; assay type: cell-based; conditions: supernatant added with lenalidomide; control supernatant activates GFP by 51.7%
# Excerpt: (§1) Lenalidomide has a powerful immunomodulatory effect, and can inhibit the release of pro-inflammatory cytokines in PBMCs derived from HIV patients in vitro and promote the secretion of anti-inflammatory cytokine IL-10. However, whether this degree of immunomodulation can inhibit HIV replication was not confirmed. The latent cell lines J-lat10.6 and C11 cells were used for the experiment. The supernatants of the experimental group and control group were used to stimulate J-lat10.6 and C11 cells, respectively. […] Lenalidomide can regulate the release of inflammatory cytokines in PBMCs from HIV-1 patients in vitro, and this bypass pathway can inhibit virus reactivation in HIV-1 latent cell lines.
# latent HIV cell line U1 = test: P24 ELISA in supernatant of U1 cells stimulated with latent activator; assay type: cell-based; conditions: pretreated 1, 2, and 5 μmol/L lenalidomide 24 hrs
# Description: U1 cells were pretreated with various concentrations of lenalidomide (1, 2, and 5 μmol/L) for 24 hrs, and then the U1 cells pre-treated with lenalidomide were stimulated with a latent activator (TNF-a, PMA, or LPS). The U1 cells in the negative control group were cultured alone, and the U1 cells in the positive control group were not pretreated with lenalidomide. The activation of P24 protein in the supernatant of latent cells U1 was detected by ELISA. […] Compared with the positive control group, the P24 contents decline in the supernatants of the three experimental groups pretreated with 1, 2, and 5 μmol/L lenalidomide, and the difference is statistically significant (P=0.0029, 0.0019, and 0.0017, B in FIG. 3). The difference between various concentrations of lenalidomide groups is not obvious. (2) In the experiment where TNF-α of 20 μg/ml is used as the latent activator, similar results are observed. […] (3) The study of endotoxin (LPS, 10 μg/ml) as a latent activator is rare.
# [1] = Clinical cohort: inflammatory markers and cytokines in peripheral blood and CSF of HIV patients on lenalidomide; assay type: in vivo, human
# Description: HIV patients with CM after antiretroviral therapy (ART) were recruited. […] Lenalidomide (25 mg) was orally administered at days 1 to 21 in a 28-day cycle, and ART was continued for 48 weeks. The participants were followed up at 7 points (base line 0w, 4w, 8w, 12w, 24w, 36w, and 48w). Inflammatory cytokines in CSF and peripheral blood were detected at each follow-up point, and PBMCs were extracted from the patients and detected for indicators of HIV reservoir.
# HIV reservoir = test: Clinical cohort: indicators of HIV reservoir (CA HIV RNA) in PBMCs extracted from patients; assay type: in vivo, human
# Description: HIV patients with CM after antiretroviral therapy (ART) were recruited. These participants had central damage after receiving standard anti-fungal therapy, elevated cerebrospinal fluid (CSF) protein level, age of 18 years or more, and plasma HIV RNA of <50 copies/ml and CD4 T cell count of >100 cells/mm3 after receiving ART for at least 48 weeks. Lenalidomide (25 mg) was orally administered at days 1 to 21 in a 28-day cycle, and ART was continued for 48 weeks. The participants were followed up at 7 points (base line 0w, 4w, 8w, 12w, 24w, 36w, and 48w). Inflammatory cytokines in CSF and peripheral blood were detected at each follow-up point, and PBMCs were extracted from the patients and detected for indicators of HIV reservoir. […] For CA HIV-RNA, lenalidomide has a great influence. […] The subjects Nos. 110 and 113 have a decline that exceeds 2 log order of magnitude.
# [2] = tested on: HIV-1 latent cell line U1; test: Viral mRNA expression in U1 cells activated with LPS; assay type: cell-based; conditions: lenalidomide 2 μmol/L pretreatment 24 hrs
# Description: After the HIV-1 latent cell line is activated by activator, the expression of viral mRNA in the cells is increased, causing the production of virions. […] The U1 cells were divided into three groups. The negative control group was added with the same amount of culture medium. In the positive control group, cells were pretreated with the culture medium, and LPS was added as an activator after 24 hrs. In the experimental group, lenalidomide (2 μmol/L) was added to pretreat the cells for 24 hrs and then LPS was added to activate the cells. […] (2) The expression levels of multi-spliced RNA, single-spliced RNA and non-spliced RNA in U1 were also detected.
# [3] = tested on: HIV-1 primary cell CD8-PBMCs; test: Virus reactivation in HIV-1 primary cells CD8-PBMCs (intracellular P24 by flow cytometry, CA HIV RNA by RT-PCR); assay type: cell-based, human
# Description: Lenalidomide is confirmed to inhibit the transcription of virus in HIV-1 latent cell line, and whether it has the same effect in HIV primary cells is unknown. CD8-PBMCs were divided into an experimental group and a positive control group and treated with or without lenalidomide for 5 days. Both groups were supplemented with LPS irregularly. In the negative control group, the same amount of DMSO was added for control culture throughout the whole process. After 5 days, the cells were broken, and the difference in expression of intracellular P24 protein in CD8-PBMCs was detected by flow cytometry. As shown in A in FIG. 5, in the positive control group, the intracellular HIV-1 core P24 in CD8-PBMCs reaches 9.76% after the continuous action of activator. […] The differences in the expression of CA HIV RNA in the five samples were also detected.
# C11 cells = test: GFP activation of C11 cells by supernatant of PBMCs treated with lenalidomide; assay type: cell-based; conditions: supernatant of lenalidomide group; control group 23.17%
# Excerpt: as §1
# U1 cells = test: CCK8 survival rate of U1 cells; assay type: cell-based; conditions: lenalidomide 0.5, 1, 2, 5, 10, and 20 μmol/L, 24 hrs
# Description: CCK8 was used to evaluate the safety of lenalidomide when U1 cells were treated with it in vitro. After U1 cells were treated with various concentrations of lenalidomide (0.5, 1, 2, 5, 10, and 20 μmol/L) for 24 hrs, the survival rate of U1 cells was detected by CCK8 kit. […] There is no significant difference between the control group and various concentration groups and between the various concentration groups. Lenalidomide has a high safety when acting on latent cell lines in vitro.
# [4] = tested on: PBMCs derived from HIV-1 patients; test: Cytokines in supernatant of PBMCs from HIV-1 patients (cytometric bead array); assay type: cell-based, human; conditions: PBMCs co-cultured with lenalidomide 24 hrs vs control group
# Description: The in-vitro regulatory effect of lenalidomide was verified as follows. PBMCs were separated from peripheral blood donated by HIV-1 patients, and divided into a control group and an experimental group. The control group was cultured alone, and the experimental group was co-cultured with lenalidomide. After 24 hrs, the supernatant was taken for cytokine detection. The level of cytokines in the supernatant was measured by a cytometric bead array kit.
# [5] = peripheral blood, after lenalidomide treatment
structure (smiles),measurement,setting,value
Nc1cccc2c1CN(C1CCC(=O)NC1=O)C2=O (stereo not drawn) [lenalidomide],J-lat10.6 GFP,J-lat10.6 cells,24.21%
same,P24 content in supernatant vs positive control group,latent HIV cell line U1; LPS 10 μg/ml,significantly lower
same,P24 content in supernatant vs positive control group,latent HIV cell line U1; PMA 20 nmol/L 24 hrs,decline
same,P24 content in supernatant vs positive control group,latent HIV cell line U1; TNF-α 20 μg/ml,significantly lower
same,IL-6 level in CSF,[1]; CSF,significantly reduces
same,TNF-a level in CSF,[1]; CSF,significantly reduces
same,IL-6,[1]; [5],decrease significantly
same,TNF-a,[1]; [5],decrease significantly
same,CRP of HIV subjects,"[1]; peripheral blood, lenalidomide 25 mg oral days 1 to 21 of 28-day cycle, after 7 weeks",decrease
same,D-dimer of HIV subjects,"[1]; peripheral blood, lenalidomide 25 mg oral days 1 to 21 of 28-day cycle, after 12 weeks",decrease
same,CA HIV-RNA,"HIV reservoir; 13 patients, from the 24th week, more obvious at the 48th week",declines obviously
same,decline of CA RNA,HIV reservoir; subjects Nos. 110 and 113,exceeds 2 log order of magnitude
same,expression level of multi-spliced RNA,[2]; then LPS,significantly inhibits
same,expression level of non-spliced RNA,[2]; then LPS,significantly inhibits
same,expression level of single-spliced RNA,[2]; then LPS,significantly inhibits
same,mRNA level of Gag,[2]; then LPS 10 μg/ml 24 hrs,basically inhibited
same,mRNA level of Rev protein,[2]; then LPS 10 μg/ml 24 hrs,basically inhibited
same,expression of intracellular antigen P24,"[3]; 5 days with lenalidomide and LPS, positive control 9.76%, DMSO control 0.73%",4.15%
same,decrease of average amount of CA HIV-1 RNA vs positive control group,"[3]; five samples, RT-PCR",0.49 time
same,GFP activation of C11 cells,C11 cells,8.09%
same,survival rate of U1 cells,U1 cells,less affected
same,IL-6 in supernatant,[4],decrease significantly
same,IL-10 in supernatant,[4],increases significantly
same,TNF-α in supernatant,[4],decrease significantly
